The record followed here is the supplement of paper PMC11616607.

The first assay relates to CAOV3. In words: drug sensitivity score (DSS) from 5-point dose-response viability curve (DSS (area-under-curve based score)); higher = more sensitive (stronger growth inhibition or killing); extreme values may be limits of the assay. Particulars: exposure time: 72 h; concentration range: 5 concentrations over 10,000-fold range. In a few lines: (§1)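 Ovarian cancer and normal ovarian cell lines were tested in 384-well plates, with drugs dispensed acoustically (Echo 550) in DMSO or water at five concentrations covering a 10,000-fold range. After 1,500 cells per well were added, plates were incubated for 3 days at 37°C and 5% CO2, and viability was read by CellTiter-Glo luminescence on a PHERAstar FS. Breeze software gave a drug sensitivity score for each cell line and drug, where a higher score means greater sensitivity. A value of zero means no response.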
Compound `COc1c(C)cnc(Cn2cnc3c(Cl)nc(N)nc32)c1C` [BIIB021] gave a drug sensitivity score of 16.

In turn, `CO[C@@H]1[C@H](N(C)C(=O)c2ccccc2)C[C@H]2O[C@]1(C)n1c3ccccc3c3c4c(c5c6ccccc6n2c5c31)C(=O)NC4` [Midostaurin] yielded a drug sensitivity score of 17.7.

Regarding `COc1ccc(S(=O)(=O)Nc2cccnc2Nc2ccc(O)cc2)cc1` [ABT-751], the drug sensitivity score was found to be 14.9. Take `COc1cc2ncnc(Nc3cccc(Cl)c3F)c2cc1OC(=O)N1CCN(C)C[C@H]1C` [AZD3759]: the drug sensitivity score was found to be 3.5. On the same count and under the same terms, with `C[C@H]1CN(C2COC2)CCN1c1ccc(Nc2cc(-c3ccnc(N4CCn5c(cc6c5CC(C)(C)C6)C4=O)c3CO)cn(C)c2=O)nc1` [GDC-0853] the figure was 0. Still for that read-out and setting: with `CCCOc1ccn2c(C(C)=O)cc(-c3ccccc3S(C)(=O)=O)c2c1` [GSK2801] the figure was 0. Same read-out and setting: the result for `CC(C)N(CCCNC(=O)Nc1ccc(C(C)(C)C)cc1)C[C@H]1O[C@@H](n2cc(Br)c3c(N)ncnc32)[C@H](O)[C@@H]1O` [SGC0946] reads 0; that for `Cc1ccc(-n2nc(C(C)(C)C)cc2NC(=O)Nc2ccc(OCCN3CCOCC3)c3ccccc23)cc1` [Doramapimod], 0. Compound `CO[C@@H](C)Cn1c(=O)n(C)c2cnc3ccc(-c4cncc(C(C)(C)O)c4)cc3c21` registered a drug sensitivity score of 9.2. The same measure, in the same setting: the result for `C[C@@H]1C[C@H]2[C@@H]3CCC4=CC(=O)C=C[C@]4(C)[C@@]3(F)[C@@H](O)C[C@]2(C)[C@@]1(O)C(=O)CO` [Dexamethasone] reads 0.

`CN1CCN(c2nc(C3=C(c4c[nH]c5ccccc45)C(=O)NC3=O)c3ccccc3n2)CC1` [Sotrastaurin] displayed a drug sensitivity score of 1.2. Still for that read-out and setting: with `Cc1cc(F)c(C(=O)Nc2cccc(-c3nncn3C(C)C)n2)cc1-n1cnc(C2CC2)c1` [Selonsertib] the figure was 0; with `O=C(/C=C\n1cnc(-c2cc(C(F)(F)F)cc(C(F)(F)F)c2)n1)NNc1ccccn1` [Verdinexor], 9.2. The compound `Cn1nnc2c(C(N)=O)ncn2c1=O` [Temozolomide] yielded a drug sensitivity score of 0. Turning to `NC(=O)N1CCC(CC(=O)N2CCC([C@H]3c4ncc(Br)cc4CCc4cc(Cl)cc(Br)c43)CC2)CC1` [Lonafarnib], the drug sensitivity score came out at 8.9. On the same count and under the same terms, the result for `CCc1cnn2c(NCc3ccc[n+]([O-])c3)cc(N3CCCC[C@H]3CCO)nc12` [Dinaciclib] reads 17.9; that for `O=C(O)c1ccc(CN2CCC(CN[C@@H]3C[C@H]3c3ccccc3)CC2)cc1`, 0.

`CN1CCN(c2ccc(C(=O)Nc3n[nH]c4ccc(Cc5cc(F)cc(F)c5)cc34)c(NC3CCOCC3)c2)CC1` [Entrectinib]: the drug sensitivity score stood at 0.6.

`O=c1[nH]c(=O)n([C@H]2C[C@H](O)[C@@H](CO)O2)cc1C(F)(F)F` [Trifluridine] registered a drug sensitivity score of 3.3. The same measure, in the same setting: the result for `CCOC(=O)C1=CCCC[C@H]1S(=O)(=O)Nc1ccc(F)cc1Cl` [Resatorvid] reads 0; that for `CN(Cc1cnc2nc(N)nc(N)c2n1)c1ccc(C(=O)N[C@@H](CCC(=O)O)C(=O)O)cc1` [Methotrexate], 16.7; that for `CN1CCN(C2CCC(n3cc(-c4ccc(Oc5ccccc5)cc4)c4c(N)ncnc43)CC2)CC1` (stereo unspecified), 11.4. Consider `COc1cc2nccc(Oc3ccc(NC(=O)Nc4cc(C)on4)c(Cl)c3)c2cc1OC` [Tivozanib], for which the drug sensitivity score stood at 1.8. The compound `C[C@H]1C[C@@H](n2c(Nc3ccc(OC(F)(F)F)cc3)nc3cc(CCC(=O)O)ccc32)CC(C)(C)C1` showed a drug sensitivity score of 0.

Consider `CN1CCN(C2CCN(C(=O)Nc3cc(Oc4ccc(NC(=O)C5(C(=O)Nc6ccc(F)cc6)CC5)c(F)c4)ccn3)CC2)CC1` [Golvatinib], for which the drug sensitivity score is 0. Still for that read-out and setting: with `Cc1cc([C@@H](C)Nc2ccccc2C(=O)O)c2nc(N3CCOCC3)cc(=O)n2c1` [AZD-6482] the figure was 2.3; with `CC1=C(/C=C/C(C)=C/C=C/C(C)=C/C(=O)O)C(C)(C)CCC1` [Tretinoin], 0; with `CC[C@H](Nc1ncnc2[nH]cnc12)c1nc2cccc(F)c2c(=O)n1-c1ccccc1` [Idelalisib], 0.8. Turning to `O=c1[nH]cc(F)c(=O)[nH]1` [Fluorouracil], the drug sensitivity score was 2. Consider `O=C(NOCCO)c1ccc2cncn2c1Nc1ccc(I)cc1F` [GDC-0623], for which the drug sensitivity score was found to be 5.

In turn, `CC(C)[C@H](C(=O)Nc1ccc(C(=O)NO)cc1)c1ccccc1` [AR-42] returned a drug sensitivity score of 9.9.

For a further assay, the system named is COV318. The assay is described as above. As to conditions: exposure time: 72 h; concentration range: 5 concentrations over 10,000-fold range. In a few lines: as §1
`COc1c(C)cnc(Cn2cnc3c(Cl)nc(N)nc32)c1C` [BIIB021] gave a drug sensitivity score of 7. Same read-out and setting: with `CO[C@@H]1[C@H](N(C)C(=O)c2ccccc2)C[C@H]2O[C@]1(C)n1c3ccccc3c3c4c(c5c6ccccc6n2c5c31)C(=O)NC4` [Midostaurin] the figure was 8.1; with `COc1ccc(S(=O)(=O)Nc2cccnc2Nc2ccc(O)cc2)cc1` [ABT-751], 7.2; with `COc1cc2ncnc(Nc3cccc(Cl)c3F)c2cc1OC(=O)N1CCN(C)C[C@H]1C` [AZD3759], 0. In turn, `C[C@H]1CN(C2COC2)CCN1c1ccc(Nc2cc(-c3ccnc(N4CCn5c(cc6c5CC(C)(C)C6)C4=O)c3CO)cn(C)c2=O)nc1` [GDC-0853] had a drug sensitivity score of 0.

For the compound `CCCOc1ccn2c(C(C)=O)cc(-c3ccccc3S(C)(=O)=O)c2c1` [GSK2801], the drug sensitivity score was 0. The same measure, in the same setting: with `CC(C)N(CCCNC(=O)Nc1ccc(C(C)(C)C)cc1)C[C@H]1O[C@@H](n2cc(Br)c3c(N)ncnc32)[C@H](O)[C@@H]1O` [SGC0946] the figure was 0. Compound `Cc1ccc(-n2nc(C(C)(C)C)cc2NC(=O)Nc2ccc(OCCN3CCOCC3)c3ccccc23)cc1` [Doramapimod] gave a drug sensitivity score of 0. Compound `CO[C@@H](C)Cn1c(=O)n(C)c2cnc3ccc(-c4cncc(C(C)(C)O)c4)cc3c21` yielded a drug sensitivity score of 6.8. The same measure, in the same setting: the result for `C[C@@H]1C[C@H]2[C@@H]3CCC4=CC(=O)C=C[C@]4(C)[C@@]3(F)[C@@H](O)C[C@]2(C)[C@@]1(O)C(=O)CO` [Dexamethasone] reads 0; that for `CN1CCN(c2nc(C3=C(c4c[nH]c5ccccc45)C(=O)NC3=O)c3ccccc3n2)CC1` [Sotrastaurin], 0; that for `Cc1cc(F)c(C(=O)Nc2cccc(-c3nncn3C(C)C)n2)cc1-n1cnc(C2CC2)c1` [Selonsertib], 0. In turn, `O=C(/C=C\n1cnc(-c2cc(C(F)(F)F)cc(C(F)(F)F)c2)n1)NNc1ccccn1` [Verdinexor] yielded a drug sensitivity score of 3.6. The same measure, in the same setting: with `Cn1nnc2c(C(N)=O)ncn2c1=O` [Temozolomide] the figure was 0; with `NC(=O)N1CCC(CC(=O)N2CCC([C@H]3c4ncc(Br)cc4CCc4cc(Cl)cc(Br)c43)CC2)CC1` [Lonafarnib], 9.2.
